For test [1], the target named is T1, Alpha-2C adrenergic receptor (Homo sapiens, UniProt P18825).
T1 sequence (P18825 whole entry): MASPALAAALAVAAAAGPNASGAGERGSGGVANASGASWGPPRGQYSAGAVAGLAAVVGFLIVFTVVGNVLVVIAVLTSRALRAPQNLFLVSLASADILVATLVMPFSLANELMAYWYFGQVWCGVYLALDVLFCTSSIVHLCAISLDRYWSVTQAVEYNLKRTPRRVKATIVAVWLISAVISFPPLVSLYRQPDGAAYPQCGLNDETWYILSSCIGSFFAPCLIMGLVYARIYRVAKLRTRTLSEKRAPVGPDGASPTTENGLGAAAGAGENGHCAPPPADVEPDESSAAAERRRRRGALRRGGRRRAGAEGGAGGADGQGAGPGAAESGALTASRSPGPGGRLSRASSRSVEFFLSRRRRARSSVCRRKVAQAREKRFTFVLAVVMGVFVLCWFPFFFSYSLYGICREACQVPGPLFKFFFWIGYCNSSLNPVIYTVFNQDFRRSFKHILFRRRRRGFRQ
Nature of the test: DRUGMATRIX: Adrenergic Alpha-2C radioligand binding (ligand: [3H] MK-912). The settings on record: sf9. It counts as cell membranes, Sf9, Membrane.

Test [2] is described as follows: DRUGMATRIX: Glutamate, AMPA radioligand binding (ligand: [3H] AMPA). The settings on record: Not Active = under 50% inhibition at 10 µM. The class given is cell membranes, Rattus norvegicus, Wistar, Cerebral cortex, Membrane.
A further test addresses Insulin receptor (Rattus norvegicus, UniProt P15127). The class given is cell membranes, Wistar, Liver, Membrane.
A short description of test [3]: DRUGMATRIX: Leukotriene, BLT (LTB4) radioligand binding (ligand: [3H]LTB4). It counts as cell membranes, Membrane. The settings on record: u-937; Not Active = under 50% inhibition at 10 µM.
The target in test [4] is Mitogen-activated protein kinase 3 (Homo sapiens, UniProt P27361). Nature of the test: DRUGMATRIX: Protein Serine/Threonine Kinase, ERK1 enzyme inhibition (substrate: Myelin Basic Protein). Also noted: species or system Escherichia coli. The settings on record: Not Active = under 50% inhibition at 10 µM.
Another test addresses T2, Adenosine receptor A3 (Homo sapiens, UniProt P0DMS8).
T2 sequence (P0DMS8 whole entry): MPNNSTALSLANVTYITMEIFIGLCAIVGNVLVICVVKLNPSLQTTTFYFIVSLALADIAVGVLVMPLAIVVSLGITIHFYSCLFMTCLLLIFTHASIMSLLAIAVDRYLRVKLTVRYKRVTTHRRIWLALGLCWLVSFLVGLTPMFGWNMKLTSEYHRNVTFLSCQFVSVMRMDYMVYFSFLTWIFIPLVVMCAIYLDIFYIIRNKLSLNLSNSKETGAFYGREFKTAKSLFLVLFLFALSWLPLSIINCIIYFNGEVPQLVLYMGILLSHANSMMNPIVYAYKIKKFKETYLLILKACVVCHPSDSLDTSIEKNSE
It counts as cell membranes, CHO-K1, Membrane.

Sequence of Mitogen-activated protein kinase 3 (P27361 whole entry): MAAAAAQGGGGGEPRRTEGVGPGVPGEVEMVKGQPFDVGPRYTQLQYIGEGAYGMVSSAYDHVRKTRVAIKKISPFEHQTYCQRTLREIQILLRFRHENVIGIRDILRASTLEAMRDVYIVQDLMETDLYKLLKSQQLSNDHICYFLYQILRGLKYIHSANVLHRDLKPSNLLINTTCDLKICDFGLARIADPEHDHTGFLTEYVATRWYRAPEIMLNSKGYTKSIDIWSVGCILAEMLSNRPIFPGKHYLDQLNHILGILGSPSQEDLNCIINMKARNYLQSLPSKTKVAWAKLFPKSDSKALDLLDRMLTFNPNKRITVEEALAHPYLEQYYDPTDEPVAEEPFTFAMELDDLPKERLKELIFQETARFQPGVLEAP
Sequence of Insulin receptor (P15127 27-759 limits assumed): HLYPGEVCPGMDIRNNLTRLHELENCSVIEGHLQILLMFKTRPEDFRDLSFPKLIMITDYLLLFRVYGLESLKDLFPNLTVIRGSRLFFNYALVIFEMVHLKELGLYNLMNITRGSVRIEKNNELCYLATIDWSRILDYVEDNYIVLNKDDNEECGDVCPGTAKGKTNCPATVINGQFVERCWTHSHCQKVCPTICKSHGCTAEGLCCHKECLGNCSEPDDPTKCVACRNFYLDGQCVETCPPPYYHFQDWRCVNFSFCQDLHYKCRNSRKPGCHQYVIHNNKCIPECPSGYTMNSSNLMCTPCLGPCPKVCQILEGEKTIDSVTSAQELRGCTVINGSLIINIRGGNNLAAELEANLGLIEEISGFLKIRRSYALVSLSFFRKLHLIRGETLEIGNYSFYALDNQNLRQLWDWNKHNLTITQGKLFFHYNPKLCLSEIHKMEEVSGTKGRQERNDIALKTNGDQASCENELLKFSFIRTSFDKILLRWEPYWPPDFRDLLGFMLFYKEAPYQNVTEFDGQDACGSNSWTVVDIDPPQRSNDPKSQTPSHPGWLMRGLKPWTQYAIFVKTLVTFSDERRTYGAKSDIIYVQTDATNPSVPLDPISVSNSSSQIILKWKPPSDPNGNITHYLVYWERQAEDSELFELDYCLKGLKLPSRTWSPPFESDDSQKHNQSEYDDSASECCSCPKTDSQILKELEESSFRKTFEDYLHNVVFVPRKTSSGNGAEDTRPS
Sequence of Insulin receptor (P15127 764-1383 limits assumed): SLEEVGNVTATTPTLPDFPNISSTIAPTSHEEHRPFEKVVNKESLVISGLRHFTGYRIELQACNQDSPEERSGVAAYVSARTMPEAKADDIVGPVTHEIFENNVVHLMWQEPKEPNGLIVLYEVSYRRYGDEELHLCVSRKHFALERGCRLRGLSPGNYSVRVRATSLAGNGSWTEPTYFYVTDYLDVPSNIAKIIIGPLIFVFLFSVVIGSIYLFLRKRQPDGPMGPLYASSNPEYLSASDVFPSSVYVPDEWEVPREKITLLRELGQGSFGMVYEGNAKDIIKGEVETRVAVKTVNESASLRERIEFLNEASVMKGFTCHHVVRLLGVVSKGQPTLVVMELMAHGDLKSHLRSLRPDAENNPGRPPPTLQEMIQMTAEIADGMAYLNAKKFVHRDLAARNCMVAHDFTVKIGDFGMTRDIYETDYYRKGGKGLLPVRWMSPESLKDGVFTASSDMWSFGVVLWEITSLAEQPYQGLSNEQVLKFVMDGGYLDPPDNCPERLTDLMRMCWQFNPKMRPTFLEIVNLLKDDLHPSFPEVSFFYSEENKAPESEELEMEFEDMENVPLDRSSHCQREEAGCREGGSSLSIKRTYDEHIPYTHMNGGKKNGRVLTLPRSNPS

Regarding `CC12CCC(CC1=O)C2(C)C` (stereo unspecified) [CAMPHOR], the IC50 entry (in test [1]; in test [2]; on Insulin receptor; in test [3]; in test [4]; at Adenosine receptor A3 (cho-k1)) was “Not Active” throughout. In addition, the inhibition constant Ki result in test [2] and in test [3] was “Not Active” in each case.
As for `CCC1(c2ccccc2)C(=O)NC(=O)NC1=O` [PHENOBARBITAL], the half-maximal inhibitory concentration (IC50) entry (in test [1]; in test [2]; against Insulin receptor; in test [3]; in test [4]; at Adenosine receptor A3 (cho-k1)) was “Not Active” throughout. Also, the inhibitory constant (Ki) entry in test [2] and in test [3] was “Not Active” in each case.
Consider `C[N+](C)(C)CCOP(=O)([O-])OC[C@H](O)CO`, for which the IC50 result (in test [1]; in test [2]; against Insulin receptor; in test [3]; in test [4]; at Adenosine receptor A3 (cho-k1)) was “Not Active” in each case. The inhibitory constant (Ki) entry in test [2] and in test [3] was “Not Active” in each case.
Consider `Oc1ccccc1` [PHENOL], for which the IC50 result (in test [1]; in test [2]; at Insulin receptor; in test [3]; in test [4]; against Adenosine receptor A3 (cho-k1)) was “Not Active” in each case. For the same molecule, the inhibition constant Ki result in test [2] and in test [3] was “Not Active” in each case.
For `Nc1nc(F)nc2c1ncn2[C@@H]1O[C@H](CO)[C@@H](O)[C@@H]1O` [FLUDARABINE], the IC50 result (in test [1]; in test [2]; at Insulin receptor; in test [3]; in test [4]; at Adenosine receptor A3 (cho-k1)) was “Not Active” throughout. Besides, the Ki entry in test [2] and in test [3] was “Not Active” in each case.
As to `c1ccc(Cn2ccnc2)cc1`, the IC50 entry (in test [1]; in test [2]; at Insulin receptor; in test [3]; in test [4]; on Adenosine receptor A3 (cho-k1)) was “Not Active” each time. Besides, the Ki entry in test [2] and in test [3] was “Not Active” each time.
In the case of `Nc1nc(N)c2nc(CNc3ccc(C(=O)N[C@@H](CCC(=O)O)C(=O)O)cc3)cnc2n1` [AMINOPTERIN], the IC50 result (in test [1]; in test [2]; against Insulin receptor; in test [3]; in test [4]; at Adenosine receptor A3 (cho-k1)) was “Not Active” throughout. Besides, the Ki entry in test [2] and in test [3] was “Not Active” in each case.
In the case of `C=C(Cl)Cl` [1,1-DICHLOROETHENE], the IC50 entry (in test [1]; in test [2]; against Insulin receptor; in test [3]; in test [4]; against Adenosine receptor A3 (cho-k1)) was “Not Active” throughout. Further, the Ki entry in test [2] and in test [3] was “Not Active” in each case.
With `Oc1ncnc2[nH]ncc12` [ALLOPURINOL], the IC50 result (in test [1]; in test [2]; on Insulin receptor; in test [3]; in test [4]; at Adenosine receptor A3 (cho-k1)) was “Not Active” throughout. For the same molecule, the inhibition constant (Ki) entry in test [2] and in test [3] was “Not Active” in each case.
Turning to `O=C(O)CCc1nc(-c2ccccc2)c(-c2ccccc2)o1` [OXAPROZIN], the IC50 result (in test [1]; in test [2]; against Insulin receptor; in test [3]; in test [4]; on Adenosine receptor A3 (cho-k1)) was “Not Active” each time. Besides, the Ki result in test [2] and in test [3] was “Not Active” in each case.
On to `ClC1=C(Cl)[C@]2(Cl)[C@@H]3[C@@H]4C[C@@H]([C@H]5O[C@@H]45)[C@@H]3[C@@]1(Cl)C2(Cl)Cl` [DIELDRIN], for which the IC50 entry (in test [1]; in test [2]; on Insulin receptor; in test [3]; in test [4]; against Adenosine receptor A3 (cho-k1)) was “Not Active” in each case. In addition, the inhibition constant (Ki) result in test [2] and in test [3] was “Not Active” each time.
Take `CC1(COc2ccc(CC3SC(=O)NC3=O)cc2)CCCCC1` (stereo unspecified) [CIGLITAZONE]: the IC50 result in test [1] was “Not Active”; in test [2], “Not Active”; at Insulin receptor, “Not Active”; in test [3], “Not Active”; in test [4], “Not Active”; at Adenosine receptor A3 (read-out: IC50), 3050 nM. In addition, the Ki result is “Not Active” in test [2], “Not Active” in test [3] and 1720 nM on Adenosine receptor A3 (read-out: Ki).
For `OC[C@H]1O[C@@H]2O[C@H]3[C@H](O)[C@@H](O)[C@@H](O[C@H]4[C@H](O)[C@@H](O)[C@@H](O[C@H]5[C@H](O)[C@@H](O)[C@@H](O[C@H]6[C@H](O)[C@@H](O)[C@@H](O[C@H]7[C@H](O)[C@@H](O)[C@@H](O[C@H]8[C@H](O)[C@@H](O)[C@@H](O[C@H]1[C@H](O)[C@H]2O)O[C@@H]8CO)O[C@@H]7CO)O[C@@H]6CO)O[C@@H]5CO)O[C@@H]4CO)O[C@@H]3CO` [BETADEX], the concentration for half-maximal inhibition (IC50) entry (in test [1]; in test [2]; against Insulin receptor; in test [3]; in test [4]; against Adenosine receptor A3 (cho-k1)) was “Not Active” in each case. For the same molecule, the Ki result in test [2] and in test [3] was “Not Active” each time.
Take `COc1ccc(Cl)cc1C(=O)NCCc1ccc(S(=O)(=O)NC(=O)NC2CCCCC2)cc1` [GLYBURIDE]: the half-maximal inhibitory concentration (IC50) result (in test [1]; in test [2]; at Insulin receptor; in test [3]; in test [4]; against Adenosine receptor A3 (cho-k1)) was “Not Active” each time. For the same molecule, the Ki entry in test [2] and in test [3] was “Not Active” each time.
As for `COC(=O)Nc1nc2ccc(Sc3ccccc3)cc2[nH]1` [FENBENDAZOLE], the IC50 entry (in test [1]; in test [2]; against Insulin receptor; in test [3]; in test [4]; against Adenosine receptor A3 (cho-k1)) was “Not Active” each time. The inhibitory constant (Ki) entry in test [2] and in test [3] was “Not Active” throughout.
Turning to `C=CCO` [ALLYL ALCOHOL], the IC50 entry (in test [1]; in test [2]; against Insulin receptor; in test [3]; in test [4]; at Adenosine receptor A3 (cho-k1)) was “Not Active” in each case. The inhibition constant Ki result in test [2] and in test [3] was “Not Active” each time.
Take CARBOXYMETHYLCELLULOSE: the concentration for half-maximal inhibition (IC50) entry (in test [1]; in test [2]; on Insulin receptor; in test [3]; in test [4]; against Adenosine receptor A3 (cho-k1)) was “Not Active” each time. In addition, the Ki entry (in test [1]; in test [2]; at Insulin receptor; in test [3]; in test [4]; at Adenosine receptor A3 (cho-k1)) was “Not Active” in each case.

One may read the IC50 as the concentration at which inhibition is half-maximal. For orientation: Ki means a measure of affinity in units of concentration, obtained from inhibition or displacement.

(Values after ChEMBL document CHEMBL1909046, “DrugMatrix in vitro pharmacology data”.)
